US8178506B2, “Oligomeric compounds and compositions for use in modulation of small non-coding RNAs” (Regulus Therapeutics Inc., priority 2003, dated 2012)
In the oligonucleotide strings, read from the 5' end, every base follows the letter of its sugar. An asterisk marks phosphorothioate; unmarked linkages are phosphodiester. Other units and linkages are bracketed, terminal groups are in braces. A string of capitals states the bases alone. e = 2'-O-(2-methoxyethyl) (MOE); [5mC] = 5-methylcytosine; d = 2'-deoxy (DNA)

What was measured:
PEPCK-c = PEPCK-c mRNA expression in HepG2 cells; type: cell-based, human; details: for PEPCKc mRNA: four hours, UTC = 100; for PEPCKc mRNA expression: Experiment 2, insulin treated: HepG2 cells transfected with oligomeric compound, 1 nM insulin for four hours, UTC + 1 nM insulin = 100
[1] = system: BJ, B16-F10, T47D, T47Dp53 and HeLa cells; assay: Cell cycle assay (propidium iodide flow cytometry), cell line panel; type: cell-based; details: 150 nM oligomeric compound, 4.5 μg/ml LIPOFECTIN, after 72 hours, propidium iodide flow cytometry
[2] = Experiment 1, basal (no insulin), HepG2, 100 nM oligomeric compound
[3] = Experiment 2, 1 nM insulin treated, HepG2, 100 nM oligomeric compound
[4] = HepG2 cells, Experiment 1, basal (no insulin)
[5] = Experiment 3, basal (no insulin), HepG2 cells, 48 hours post-transfection
[6] = Experiment 4, insulin-sensitization: HepG2 cells treated with 1 nM insulin for four hours, 48 h post-transfection, mRNA by real-time PCR

## 327876 (antisense eA*eA*e[5mC]*eA*e[5mC]*eT*eG*eA*eT*eT*eT*e[5mC]*eA*eA*eA*eT*eG*eG*eT*eG*e[5mC]*eT*eA) [compound 327876]
PEPCK-c; [2]
  PEPCK-c (% UTC): 119 % UTC
PEPCK-c; [3]
  PEPCK-c (% UTC): 176 % UTC

## 327880 (antisense eA*e[5mC]*eA*eA*eA*eT*eT*e[5mC]*eG*eG*eT*eT*e[5mC]*eT*eA*e[5mC]*eA*eG*eG*eG*eT*eA) [compound 327880]
PEPCK-c; [2]
  PEPCK-c (% UTC): 110 % UTC
PEPCK-c; [3]
  PEPCK-c (% UTC): 125 % UTC

## 327885 (antisense eA*e[5mC]*eT*eA*e[5mC]*e[5mC]*eT*eG*e[5mC]*eA*e[5mC]*eT*eG*eT*eA*eA*eG*e[5mC]*eA*e[5mC]*eT*eT*eT*eG) [compound 327885]
PEPCK-c; [4]
  PEPCKc mRNA: 73

## 327886 (antisense e[5mC]*eG*e[5mC]*eG*eT*eA*e[5mC]*e[5mC]*eA*eA*eA*eA*eG*eT*eA*eA*eT*eA*eA*eT*eG) [compound 327886]
PEPCK-c; [4]
  PEPCKc mRNA: 61

## 327887 (antisense eG*e[5mC]*eG*eA*e[5mC]*e[5mC]*eA*eT*eG*eG*e[5mC]*eT*eG*eT*eA*eG*eA*e[5mC]*eT*eG*eT*eT*eA) [compound 327887]
PEPCK-c; [4]
  PEPCKc mRNA: 83

## 327892 (antisense eA*e[5mC]*eT*eT*eT*e[5mC]*eG*eG*eT*eT*eA*eT*e[5mC]*eT*eA*eG*e[5mC]*eT*eT*eT*eA) [compound 327892]
PEPCK-c; [2]
  PEPCK-c (% UTC): 75 % UTC
PEPCK-c; [3]
  PEPCK-c (% UTC): 104 % UTC

## 327895 (antisense eA*e[5mC]*eA*eA*eA*e[5mC]*eA*e[5mC]*e[5mC]*eA*eT*eT*eG*eT*e[5mC]*eA*e[5mC]*eA*e[5mC]*eT*e[5mC]*e[5mC]*eA) [compound 327895]
PEPCK-c; [4]
  PEPCKc mRNA: 71

## 327897 (antisense eA*e[5mC]*eA*eG*eG*e[5mC]*e[5mC]*eG*eG*eG*eA*e[5mC]*eA*eA*eG*eT*eG*e[5mC]*eA*eA*eT*eA) [compound 327897]
PEPCK-c
  PEPCKc mRNA expression: 78
PEPCK-c; [4]
  PEPCKc mRNA: 72

## 327899 (antisense e[5mC]*eA*eG*eT*eG*eA*eA*eT*eT*e[5mC]*eT*eA*e[5mC]*e[5mC]*eA*eG*eT*eG*e[5mC]*e[5mC]*eA*eT*eA) [compound 327899]
PEPCK-c; [4]
  PEPCKc mRNA: 42

## 327900 (antisense e[5mC]*eT*eG*e[5mC]*e[5mC]*eT*eG*eT*e[5mC]*eT*eG*eT*eG*e[5mC]*e[5mC]*eT*eG*e[5mC]*eT*eG*eT) [compound 327900]
PEPCK-c; [4]
  PEPCKc mRNA: 88

## 327902 (antisense eG*eG*e[5mC]*eT*eG*eT*e[5mC]*eA*eA*eT*eT*e[5mC]*eA*eT*eA*eG*eG*eT*e[5mC]*eA*eG) [compound 327902]
[1]
  G1 (percentage of cells in phase of the cell cycle): 50.7%
  G2/M (percentage of cells in phase of the cell cycle): 15.3%
  S (percentage of cells in phase of the cell cycle): 33.9%
  SubG1 (percentage of cells in phase of the cell cycle): 10.6%
  aneuploid (percentage of cells): 13.4%

## 327904 (antisense eA*e[5mC]*eT*e[5mC]*eA*e[5mC]*e[5mC]*eG*eA*e[5mC]*eA*eG*e[5mC]*eG*eT*eT*eG*eA*eA*eT*eG*eT*eT) [compound 327904]
[1]
  G1 (percentage of cells in phase of the cell cycle): 54.4%
  G2/M (percentage of cells in phase of the cell cycle): 16.2%
  S (percentage of cells in phase of the cell cycle): 29.5%
  SubG1 (percentage of cells in phase of the cell cycle): 8.6%
  aneuploid (percentage of cells): 15.6%

## 327906 (antisense eT*e[5mC]*eA*eT*eA*eG*e[5mC]*e[5mC]*e[5mC]*eT*eG*eT*eA*e[5mC]*eA*eA*eT*eG*e[5mC]*eT*eG*e[5mC]*eT) [compound 327906]
[1]
  G1 (percentage of cells in phase of the cell cycle): 46.1%
  G2/M (percentage of cells in phase of the cell cycle): 20.9%
  S (percentage of cells in phase of the cell cycle): 33%
  SubG1 (percentage of cells in phase of the cell cycle): 15.2%
  aneuploid (percentage of cells): 15.8%

## 327907 (antisense eA*eG*e[5mC]*e[5mC]*eT*eA*eT*e[5mC]*e[5mC]*eT*eG*eG*eA*eT*eT*eA*e[5mC]*eT*eT*eG*eA*eA) [compound 327907]
[1]
  G1 (percentage of cells in phase of the cell cycle): 49.5%
  G2/M (percentage of cells in phase of the cell cycle): 17.6%
  S (percentage of cells in phase of the cell cycle): 32.8%
  SubG1 (percentage of cells in phase of the cell cycle): 17.8%
  aneuploid (percentage of cells): 17.8%

## 327910 (antisense eT*eG*eA*eT*eA*eG*e[5mC]*e[5mC]*e[5mC]*eT*eG*eT*eA*e[5mC]*eA*eA*eT*eG*e[5mC]*eT*eG*e[5mC]*eT) [compound 327910]
[1]
  G1 (percentage of cells in phase of the cell cycle): 49.5%
  G2/M (percentage of cells in phase of the cell cycle): 17.5%
  S (percentage of cells in phase of the cell cycle): 33%
  SubG1 (percentage of cells in phase of the cell cycle): 9.3%
  aneuploid (percentage of cells): 13.1%

## 327913 (antisense eA*eA*e[5mC]*e[5mC]*eG*eA*eT*eT*eT*e[5mC]*eA*eA*eA*eT*eG*eG*eT*eG*e[5mC]*eT*eA*eG) [compound 327913]
PEPCK-c; [2]
  PEPCK-c (% UTC): 229 % UTC
PEPCK-c; [3]
  PEPCK-c (% UTC): 268 % UTC

## 327916 (antisense eT*eG*eG*e[5mC]*eA*eT*eT*e[5mC]*eA*e[5mC]*e[5mC]*eG*e[5mC]*eG*eT*eG*e[5mC]*e[5mC]*eT*eT*eA*eA) [compound 327916]
PEPCK-c
  PEPCKc mRNA expression: 88
PEPCK-c; [4]
  PEPCKc mRNA: 88

## 327918 (antisense e[5mC]*eT*eA*eG*eT*eA*e[5mC]*eA*eT*e[5mC]*eA*eT*e[5mC]*eT*eA*eT*eA*e[5mC]*eT*eG*eT*eA) [compound 327918]
PEPCK-c
  PEPCKc mRNA expression: 107
PEPCK-c; [4]
  PEPCKc mRNA: 81

## 327920 (antisense eG*eA*eG*eA*e[5mC]*e[5mC]*e[5mC]*eA*eG*eT*eA*eG*e[5mC]*e[5mC]*eA*eG*eA*eT*eG*eT*eA*eG*e[5mC]*eT) [compound 327920]
PEPCK-c
  PEPCKc mRNA expression: 59
PEPCK-c; [4]
  PEPCKc mRNA: 52

## 327923 (antisense eG*eA*eA*eA*eG*eA*eG*eA*e[5mC]*e[5mC]*eG*eG*eT*eT*e[5mC]*eA*e[5mC]*eT*eG*eT*eG*eA) [compound 327923]
PEPCK-c
  PEPCKc mRNA expression: 125
PEPCK-c; [4]
  PEPCKc mRNA: 83

## 327928 (antisense eA*eA*e[5mC]*e[5mC]*eG*eA*eT*eT*eT*e[5mC]*eA*eG*eA*eT*eG*eG*eT*eG*e[5mC]*eT*eA*eG) [compound 327928]
[1]
  G1 (percentage of cells in phase of the cell cycle): 56%
  G2/M (percentage of cells in phase of the cell cycle): 16%
  S (percentage of cells in phase of the cell cycle): 27.9%
  SubG1 (percentage of cells in phase of the cell cycle): 6.6%
  aneuploid (percentage of cells): 15.9%

## 327951 (antisense e[5mC]*eA*e[5mC]*eA*eA*eA*e[5mC]*e[5mC]*eA*eT*eT*eA*eT*eG*eT*eG*e[5mC]*eT*eG*e[5mC]*eT*eA) [compound 327951]
[1]
  G1 (percentage of cells in phase of the cell cycle): 60.9%
  G2/M (percentage of cells in phase of the cell cycle): 14.3%
  S (percentage of cells in phase of the cell cycle): 24.8%
  SubG1 (percentage of cells in phase of the cell cycle): 4.3%
  aneuploid (percentage of cells): 16.7%

## 327954 (antisense eA*e[5mC]*eA*eA*eA*eG*eT*eT*e[5mC]*eT*eG*eT*eG*eA*eT*eG*e[5mC]*eA*e[5mC]*eT*eG*eA) [compound 327954]
PEPCK-c; [2]
  PEPCK-c (% UTC): 79 % UTC
PEPCK-c; [3]
  PEPCK-c (% UTC): 102 % UTC

## 328114 (antisense eA*eA*eT*e[5mC]*eT*e[5mC]*eA*eT*eT*eT*eT*e[5mC]*eA*eT*eA*e[5mC]*eT*eT*eG*e[5mC]*eA) [compound 328114]
PEPCK-c
  PEPCKc mRNA expression: 41

## 328115 (antisense eA*eG*eA*eA*eG*eG*eT*eG*eG*eG*eG*eA*eG*e[5mC]*eA*eG*e[5mC]*eG*eT*e[5mC]*eA) [compound 328115]
PEPCK-c
  PEPCKc mRNA expression: 59

## 328125 (antisense eT*eA*eT*eG*eA*eA*eA*eT*eG*e[5mC]*e[5mC]*eA*eG*eA*eG*e[5mC]*eT*eG*e[5mC]*e[5mC]*eA) [compound 328125]
PEPCK-c
  PEPCKc mRNA expression: 77

## 328362 (eT*eG*eT*eG*eT*dT*dT*dT*d[5mC]*dT*dG*dA*d[5mC]*dT*d[5mC]*eA*eG*eT*e[5mC]*eA) [compound 328362]
[1]
  G1 (percentage of cells in phase of the cell cycle): 51.2%
  G2/M (percentage of cells in phase of the cell cycle): 15.1%
  S (percentage of cells in phase of the cell cycle): 33.6%
  SubG1 (percentage of cells in phase of the cell cycle): 9.1%
  aneuploid (percentage of cells): 12.9%

## 328382 (e[5mC]*eA*eG*eA*e[5mC]*dT*d[5mC]*d[5mC]*d[5mC]*dA*dA*d[5mC]*dT*dG*dA*e[5mC]*e[5mC]*eA*eG*eA) [compound 328382]
[1]
  G1 (percentage of cells in phase of the cell cycle): 59.8%
  G2/M (percentage of cells in phase of the cell cycle): 14.4%
  S (percentage of cells in phase of the cell cycle): 25.7%
  SubG1 (percentage of cells in phase of the cell cycle): 2.9%
  aneuploid (percentage of cells): 14.8%

## 328677 (eT*e[5mC]*e[5mC]*eT*eG*dG*dA*dT*dG*dA*dT*dA*dT*d[5mC]*dT*eA*e[5mC]*e[5mC]*eT*e[5mC]; antisense) [compound 328677]
PEPCK-c; [5]
  PEPCK-c (% UTC): 145 % UTC
PEPCK-c; [6]
  PEPCK-c (% UTC): 117 % UTC

## 328685 (e[5mC]*eG*eG*e[5mC]*e[5mC]*dG*dG*dA*dG*d[5mC]*d[5mC]*dA*dT*dA*dG*eA*e[5mC]*eT*e[5mC]*eG; antisense) [compound 328685]
PEPCK-c; [5]
  PEPCK-c (% UTC): 219 % UTC
PEPCK-c; [6]
  PEPCK-c (% UTC): 184 % UTC

## 328759 (antisense eG*eA*eG*eG*eG*dA*dT*dT*dG*dT*dA*dT*dG*dA*dA*e[5mC]*eA*eT*e[5mC]*eT) [compound 328759]
PEPCK-c; [5]
  PEPCK-c (% UTC): 98 % UTC
PEPCK-c; [6]
  PEPCK-c (% UTC): 92 % UTC

## 338664 (antisense e[5mC]*eA*eG*eA*e[5mC]*eT*e[5mC]*e[5mC]*e[5mC]*eA*eA*e[5mC]*eT*eG*eA*e[5mC]*e[5mC]*eA*eG*eA) [compound 338664]
PEPCK-c; [2]
  PEPCK-c (% UTC): 75 % UTC
PEPCK-c; [3]
  PEPCK-c (% UTC): 76 % UTC

## 340927 (antisense eT*eG*eA*eG*e[5mC]*dT*dA*d[5mC]*dA*dG*dT*dG*d[5mC]*dT*dT*e[5mC]*eA*eT*e[5mC]*eT*e[5mC]*eA) [compound 340927]
PEPCK-c; [2]
  PEPCK-c (% UTC): 87 % UTC
PEPCK-c; [3]
  PEPCK-c (% UTC): 103 % UTC

## 341800 (antisense AAGCCCAAAAGGAGAAUUCUUUG; all 2'-MOE, all phosphorothioate, methylation of C and T or U not given here) [compound 341800]
PEPCK-c; [4]
  PEPCKc mRNA: 71
